From patent US11959083B2, “Immunosuppression-reverting oligonucleotides inhibiting the expression of CD39” (Secarna Pharmaceuticals GmbH & Co. KG, priority 2016, dated 2024)
l = locked nucleic acid (LNA); d = 2'-deoxy (DNA)

Columns and labels:
hCD39 mRNA [1] = assay: hCD39 mRNA knockdown efficacy screen in A-172 cells (single dose, gymnotic delivery, QuantiGene Singleplex); format: cell-based, human; settings: 10 μM, 3 days, normalized to HPRT1; for Mean hCD39 mRNA expression (relative to untreated cells set as 1): first screening round; for Relative hCD39 mRNA expression (compared to non-treated cells): second screening round
Method: (§1) FIGS. 2A to 2D depict hCD39 mRNA knockdown efficacy of hCD39 antisense oligonucleotides in human cancer cell lines HDLM-2 (human Hodgkin Lymphoma) in a first and second screening round (FIGS. 2A-1 and 2A-2) and 2B-1 and 2B-2 and A-172 (human glioblastoma) in a first and second screening round (FIGS. 2C-1 and 2C-2) and 2D-1 and 2D-2. HDLM-2 and A-172 cells were treated for 3 days with 10 μM of the respective antisense oligonucleotide. As negative control, cells were treated with neg1, an antisense oligonucleotide having the sequence CGTTTAGGCTATGTACTT (SEQ ID NO:99) (described in WO2014154843 A1). Residual hCD39 mRNA expression relative to untreated cells is depicted. Expression values were normalized to expression of the housekeeping gene HPRT1. Depicted is the mean of triplicate wells+/−SD.
(§2) FIGS. 6A-6B depicts a third screening round where further antisense oligonucleotides were designed. These antisense oligonucleotides were based on efficient antisense oligonucleotides from the first and second screening round. Therefore, hCD39 antisense oligonucleotides were tested in human cancer cell lines HDLM-2 (human Hodgkin's lymphoma) (FIG. 6A) and A-172 (human glioblastoma) (FIG. 6B). HDLM-2 and A-172 cells were treated for 3 days with 10 μM of the respective antisense oligonucleotide. […] Residual hCD39 mRNA expression relative to untreated cells (set as 1) is depicted.
(§3) In order to analyze the efficacy of hCD39 antisense oligonucleotides of the present invention with regard to the knockdown of hCD39 mRNA expression in cancer cell lines, HDLM-2 (human Hodgkin Lymphoma, DSMZ) and A-172 (human glioblastoma, ATCC) cells were treated with a single dose (concentration: 10 μM without addition of any transfection reagent; this process is called gymnotic delivery) of the respective antisense oligonucleotide as shown in FIG. 2A to 2D. hCD39 and HPRT1 mRNA expression was analyzed three days later using the QuantiGene Singleplex assay (Affymetrix) and hCD39 expression values were normalized to HPRT1 values. […] Values of the mean normalized mRNA expression of hCD39 compared to non-treated cells are listed for A-172 (Table 4 for first screening round and Table 5 for second screening round) and HDLM-2 cells (Table 6 for first screening round and Table 7 for second screening round) in the following:
(§4) For a third screening round, new antisense oligonucleotides were designed. These antisense oligonucleotides were based on efficient antisense oligonucleotides from the first screening round with modifications in length, exact position on mRNA and chemical modification pattern. Therefore, hCD39 antisense oligonucleotides were tested in human cancer cell lines (FIG. 6A, Table 10) HDLM-2 (human Hodgkin's lymphoma) and (FIG. 6B, Table 11) A-172 (human glioblastoma). HDLM-2 and A-172 cells were treated for 3 days with 10 μM of the respective antisense oligonucleotide. […] Residual hCD39 mRNA expression relative to untreated cells (set as 1) is depicted.

hCD39 mRNA [2] = assay: hCD39 mRNA knockdown efficacy screen in HDLM-2 cells (single dose, gymnotic delivery, QuantiGene Singleplex); format: cell-based, human; design: key to Relative hCD39 mRNA expression (compared to non-treated cells): *: values are below detection limit; settings: 10 μM, 3 days; for Mean hCD39 mRNA expression normalized to HPRT1 relative to untreated control = 1: first screening round; for Relative hCD39 mRNA expression (compared to non-treated cells): second screening round, normalized to HPRT1
Method: as §1, §2, §3, §4

Substance	Mean hCD39 mRNA expression (relative to untreated cells set as 1) (hCD39 mRNA [1])	Relative hCD39 mRNA expression (compared to non-treated cells) (hCD39 mRNA [1])	Mean hCD39 mRNA expression normalized to HPRT1 relative to untreated control = 1 (hCD39 mRNA [2])	Relative hCD39 mRNA expression (compared to non-treated cells) (hCD39 mRNA [2])
+A*+A*+A*G*T*C*C*A*G*C*C*G*G*C*G*+T*+C (antisense AAAGTCCAGCCGGCGTC; sugars from the 5' end l3 d12 l2, all phosphorothioate, methylation of C not given here) [A04050H]	0.55	0.28	0.11	0.90
+A*+A*+G*G*T*C*A*C*T*T*A*C*G*T*+T*+C*+A (antisense AAGGTCACTTACGTTCA; sugars from the 5' end l3 d11 l3, all phosphorothioate, methylation of C not given here) [A04046H]	0.14	0.08	0.04	0.37
+A*+A*+T*C*C*C*C*C*T*G*G*A*+G*+T*+G (antisense AATCCCCCTGGAGTG; sugars from the 5' end l3 d9 l3, all phosphorothioate, methylation of C not given here) [A04011H]	–	0.69	0.29	0.30
+A*+C*+G*T*T*C*A*C*T*A*C*C*T*T*+C*+T*+T (antisense ACGTTCACTACCTTCTT; sugars from the 5' end l3 d11 l3, all phosphorothioate, methylation of C not given here) [A04043H]	0.21	0.11	0.04	*
+A*+C*+T*A*T*G*C*T*G*A*A*C*C*A*+C*+C (antisense ACTATGCTGAACCACC; sugars from the 5' end l3 d11 l2, all phosphorothioate, methylation of C not given here) [A04022H]	0.14	0.15	0.09	0.09
+A*+C*+T*C*C*A*C*A*C*T*A*A*T*+G*+C*+T (antisense ACTCCACACTAATGCT; sugars from the 5' end l3 d10 l3, all phosphorothioate, methylation of C not given here) [A04037H]	0.17	0.09	0.12	0.10
+A*+C*+T*C*C*A*G*C*G*T*A*A*+G*+A*+T (antisense ACTCCAGCGTAAGAT; sugars from the 5' end l3 d9 l3, all phosphorothioate, methylation of C not given here) [A04013H]	–	0.75	0.22	0.22
+A*+G*+C*C*T*A*T*G*A*T*G*G*C*C*+A*+C (antisense AGCCTATGATGGCCAC; sugars from the 5' end l3 d11 l2, all phosphorothioate, methylation of C not given here) [A04031H]	–	0.55	–	*
+A*+G*+C*G*T*A*A*G*A*T*G*T*+T*+T*+T (antisense AGCGTAAGATGTTTT; sugars from the 5' end l3 d9 l3, all phosphorothioate, methylation of C not given here) [A04012H]	0.43	0.43	0.11	0.10
+A*+G*+G*C*G*A*A*A*T*T*G*C*+A*+G*+A (antisense AGGCGAAATTGCAGA; sugars from the 5' end l3 d9 l3, all phosphorothioate, methylation of C not given here) [A04008H]	0.46	0.46	0.20	0.20
+A*+G*A*G*T*G*C*C*T*G*A*T*C*C*+T*+T (antisense AGAGTGCCTGATCCTT; sugars from the 5' end l2 d12 l2, all phosphorothioate, methylation of C not given here) [A04025H]	0.13	0.13	0.08	0.08
+A*+G*G*A*T*A*G*T*C*T*T*G*T*C*+T*+C (antisense AGGATAGTCTTGTCTC; sugars from the 5' end l2 d12 l2, all phosphorothioate, methylation of C not given here) [A04034H]	0.28	0.15	0.06	0.06
+A*+G*T*C*C*A*G*C*C*G*G*C*G*T*+C (antisense AGTCCAGCCGGCGTC; sugars from the 5' end l2 d12 l1, all phosphorothioate, methylation of C not given here) [A04015H]	–	1.05	0.29	0.29
+A*+T*+G*T*A*G*C*C*C*A*A*A*G*T*+C*+C (antisense ATGTAGCCCAAAGTCC; sugars from the 5' end l3 d11 l2, all phosphorothioate, methylation of C not given here) [A04028H]	0.29	0.29	0.07	0.07
+C*+A*+T*G*T*A*G*C*C*C*A*A*A*+G*+T*+C (antisense CATGTAGCCCAAAGTC; sugars from the 5' end l3 d10 l3, all phosphorothioate, methylation of C not given here) [A04029H]	0.45	0.46	0.03	0.03
